Data on 33 compounds can be found in patent US20260232812A1, “BIFUNCTIONAL MOLECULES FOR TARGETED PROTEIN DEGRADATION” (Amphista Therapeutics Limited, priority 2022, published 2026).

This assay has as its target T1, BRD4 (Homo sapiens, UniProt O60885).
T1 construct: HEK293 containing a HiBit insertion for BRD4; endogenous in cells; host or cells: HEK293 with a HiBiT insertion for BRD4
Kind of assay: Assay 1 - Degradation of HiBit-BRD4 in HEK293. Conditions: HiBit-BRD4 in HEK293, 6 h treatment. The class given is cell-based. As for the experimental part: 1.1 Assay 1-Degradation of HiBit-BRD4 in HEK293
HEK293 containing a HiBit insertion for BRD4 were plated in 384-well tissue culture plates at a density of 8×10^4 per well in a volume of 36 μL and incubated overnight at 37° C. and 5% CO2. Wells were treated with test compounds for 6 h prior to addition of the NanoLuc substrate and reading on a […]. Degradation data was plotted and analysed using […] (Graphpad).

Broadly, the DC50 is the midpoint of the concentration-degradation curve. Lower therefore signals degradation at low concentration. Usually Dmax stands for the largest share of the target that was removed. Low values mean shallow degradation, high ones deep degradation. With `CC(=O)N1c2ccc(-c3ccc(C(=O)NCCOCCOCCOCCOCCOCCNC(=O)C4CC(c5ccccc5)CN(C(=O)/C(C#N)=C/C(C)(C)C)C4)cc3)cc2[C@H](Nc2ccc(Cl)cc2)C[C@@H]1C` (stereo partly drawn) [Example 13aa], the DC50 is > 0.2 µM and the Dmax is ≥ 70%.
In the case of `CC(=O)N1c2ccc(-c3ccc(C(=O)NCCOCCOCCOCCOCCOCCNC(=O)C4CC(c5ccccc5)CN(C(=O)/C(C#N)=C/c5ccn(C)n5)C4)cc3)cc2[C@H](Nc2ccc(Cl)cc2)C[C@@H]1C` (stereo partly drawn) [Example 13ab], the DC50 was > 0.2 µM and the maximal degradation (Dmax) lay in the range of 50 to 70%.
In the case of `CC(=O)N1c2ccc(-c3ccc(C(=O)NCCOCCOCCOCCOCCOCCNC(=O)C4CC(c5ccccc5)CN(C(=O)/C(C#N)=C/c5ccc(F)cc5)C4)cc3)cc2[C@H](Nc2ccc(Cl)cc2)C[C@@H]1C` (stereo partly drawn) [Example 13ac], the DC50 is 0.025 to 0.2 µM and the Dmax was ≥ 70%.
As for `COc1ccc(C2CC(C(=O)NCCOCCOCCOCCOCCOCCNC(=O)c3ccc(-c4ccc5c(c4)[C@H](Nc4ccc(Cl)cc4)C[C@H](C)N5C(C)=O)cc3)CN(C(=O)/C(C#N)=C/c3nccs3)C2)cc1` (stereo partly drawn) [Example 13ae], the 50% degradation concentration (DC50) was in the range of 0.025 to 0.2 µM and the Dmax was ≥ 70%.
For `COc1ccc(C2CC(C(=O)NCCOCCOCCOCCOCCOCCNC(=O)c3ccc(-c4ccc5c(c4)[C@H](Nc4ccc(Cl)cc4)C[C@H](C)N5C(C)=O)cc3)CN(C(=O)/C(C#N)=C/C(C)(C)C)C2)cc1` (stereo partly drawn) [Example 13af] the same measures were 0.025 to 0.2 µM and 50 to 70%.
For `COc1ccc(C2CC(C(=O)NCCOCCOCCOCCOCCOCCNC(=O)c3ccc(-c4ccc5c(c4)[C@H](Nc4ccc(Cl)cc4)C[C@H](C)N5C(C)=O)cc3)CN(C(=O)/C(C#N)=C/c3ccn(C)n3)C2)cc1` (stereo partly drawn) [Example 13ag] the same measures were 0.025 to 0.2 µM and 50 to 70%.
The corresponding values for `COc1ccc(C2CC(C(=O)NCCOCCOCCOCCOCCOCCNC(=O)c3ccc(-c4ccc5c(c4)[C@H](Nc4ccc(Cl)cc4)C[C@H](C)N5C(C)=O)cc3)CN(C(=O)/C(C#N)=C/c3ccc(F)cc3)C2)cc1` (stereo partly drawn) [Example 13ah] are 0.025 to 0.2 µM and ≥ 70%.
In the case of `COc1ccc(C2CC(C(=O)NCCOCCOCCOCCOCCOCCNC(=O)c3ccc(-c4ccc5c(c4)[C@H](Nc4ccc(Cl)cc4)C[C@H](C)N5C(C)=O)cc3)CN(C(=O)/C(C#N)=C/C(C)(C)CN3CCOCC3)C2)cc1` (stereo partly drawn) [Example 13ai], the 50% degradation concentration (DC50) is > 0.2 µM and the Dmax was 30 to 50%.
For the compound `CC(=O)N1c2ccc(-c3ccc(C(=O)NCCOCCOCCOCCOCCOCCNC(=O)C4CC(c5ccc(C(F)(F)F)cc5)CN(C(=O)/C(C#N)=C/C(C)(C)C)C4)cc3)cc2[C@H](Nc2ccc(Cl)cc2)C[C@@H]1C` (stereo partly drawn) [Example 13ak], the DC50 is 0.025 to 0.2 µM and the maximal degradation (Dmax) was ≥ 70%.
The compound `CC(=O)N1c2ccc(-c3ccc(C(=O)NCCOCCOCCOCCOCCOCCNC(=O)C4CC(c5ccc(C(F)(F)F)cc5)CN(C(=O)/C(C#N)=C/C(C)(C)CN5CCOCC5)C4)cc3)cc2[C@H](Nc2ccc(Cl)cc2)C[C@@H]1C` (stereo partly drawn) [Example 13an] showed a 50% degradation concentration (DC50) of 0.025 to 0.2 µM and a Dmax of 30 to 50%.
For `CC(=O)N1c2ccc(-c3ccc(C(=O)NCCOCCOCCOCCOCCOCCNC(=O)C4CC(c5cccc(C)c5)CN(C(=O)/C(C#N)=C/c5nccs5)C4)cc3)cc2[C@H](Nc2ccc(Cl)cc2)C[C@@H]1C` (stereo partly drawn) [Example 13at] the same measures were 0.025 to 0.2 µM and ≥ 70%.
Regarding `CC(=O)N1c2ccc(-c3ccc(C(=O)NCCOCCOCCOCCOCCOCCNC(=O)C4CC(c5cccc(C)c5)CN(C(=O)/C(C#N)=C/C(C)(C)C)C4)cc3)cc2[C@H](Nc2ccc(Cl)cc2)C[C@@H]1C` (stereo partly drawn) [Example 13au], the half-maximal degradation concentration (DC50) lay in the range of 0.025 to 0.2 µM and the Dmax was ≥ 70%.
As to `CC(=O)N1c2ccc(-c3ccc(C(=O)NCCOCCOCCOCCOCCOCCNC(=O)C4CC(c5cccc(C)c5)CN(C(=O)/C(C#N)=C/c5ccn(C)n5)C4)cc3)cc2[C@H](Nc2ccc(Cl)cc2)C[C@@H]1C` (stereo partly drawn) [Example 13av], the DC50 was > 0.2 µM and the maximal degradation (Dmax) lay in the range of 50 to 70%.
With `CC(=O)N1c2ccc(-c3ccc(C(=O)NCCOCCOCCOCCOCCOCCNC(=O)C4CC(c5cccc(C)c5)CN(C(=O)/C(C#N)=C/c5ccc(F)cc5)C4)cc3)cc2[C@H](Nc2ccc(Cl)cc2)C[C@@H]1C` (stereo partly drawn) [Example 13aw], the DC50 is > 0.2 µM and the greatest degradation seen (Dmax) was < 50%.
The corresponding values for `CC(=O)N1c2ccc(-c3ccc(C(=O)NCCOCCOCCOCCOCCOCCNC(=O)C4CC(c5cccc(C)c5)CN(C(=O)/C(C#N)=C/C(C)(C)CN5CCOCC5)C4)cc3)cc2[C@H](Nc2ccc(Cl)cc2)C[C@@H]1C` (stereo partly drawn) [Example 13ax] are < 0.025 µM and ≥ 70%.
The corresponding values for `CC(=O)N1c2ccc(-c3ccc(C(=O)NCCOCCOCCOCCOCCOCCNC(=O)C4CCCN(C(=O)/C(C#N)=C/C(C)(C)C)C4)cc3)cc2[C@H](Nc2ccc(Cl)cc2)C[C@@H]1C` (stereo partly drawn) [Example 13b] are 0.025 to 0.2 µM and ≥ 70%.
Consider `CC(=O)N1c2ccc(-c3ccc(C(=O)NCCOCCOCCOCCOCCOCCNC(=O)C4CCCN(C(=O)/C(C#N)=C/c5ccn(C)n5)C4)cc3)cc2[C@H](Nc2ccc(Cl)cc2)C[C@@H]1C` (stereo partly drawn) [Example 13c], for which the 50% degradation concentration (DC50) was 0.025 to 0.2 µM and the maximal degradation (Dmax) is < 50%.
For `CC(=O)N1c2ccc(-c3ccc(C(=O)NCCOCCOCCOCCOCCOCCNC(=O)C4CCCN(C(=O)/C(C#N)=C/c5ccc(F)cc5)C4)cc3)cc2[C@H](Nc2ccc(Cl)cc2)C[C@@H]1C` (stereo partly drawn) [Example 13d] the same measures were > 0.2 µM and 30 to 50%.
For `CC(=O)N1c2ccc(-c3ccc(C(=O)NCCOCCOCCOCCOCCOCCNC(=O)C4CCCN(C(=O)/C(C#N)=C/C(C)(C)CN5CCOCC5)C4)cc3)cc2[C@H](Nc2ccc(Cl)cc2)C[C@@H]1C` (stereo partly drawn) [Example 13e], the DC50 is > 0.2 µM and the greatest degradation seen (Dmax) fell in the range of 30 to 50%.
As to `CC(=O)N1c2ccc(-c3ccc(C(=O)NCCOCCOCCOCCOCCOCCNC(=O)C4CC(C)CN(C(=O)/C(C#N)=C/C(C)(C)C)C4)cc3)cc2[C@H](Nc2ccc(Cl)cc2)C[C@@H]1C` (stereo partly drawn) [Example 13g], the 50% degradation concentration (DC50) is > 0.2 µM and the Dmax was 50 to 70%.
Take `CC(=O)N1c2ccc(-c3ccc(C(=O)NCCOCCOCCOCCOCCOCCNC(=O)C4CC(C)CN(C(=O)/C(C#N)=C/c5ccc(F)cc5)C4)cc3)cc2[C@H](Nc2ccc(Cl)cc2)C[C@@H]1C` (stereo partly drawn) [Example 13i]: the 50% degradation concentration (DC50) is > 0.2 µM and the greatest degradation seen (Dmax) is 30 to 50%.
For `CC(=O)N1c2ccc(-c3ccc(C(=O)NCCOCCOCCOCCOCCOCCNC(=O)C4CC(C(C)C)CN(C(=O)/C(C#N)=C/c5nccs5)C4)cc3)cc2[C@H](Nc2ccc(Cl)cc2)C[C@@H]1C` (stereo partly drawn) [Example 13k] the same measures were < 0.025 µM and ≥ 70%.
With `CC(=O)N1c2ccc(-c3ccc(C(=O)NCCOCCOCCOCCOCCOCCNC(=O)C4CC(C(C)C)CN(C(=O)/C(C#N)=C/C(C)(C)C)C4)cc3)cc2[C@H](Nc2ccc(Cl)cc2)C[C@@H]1C` (stereo partly drawn) [Example 13l], the half-maximal degradation concentration (DC50) is > 0.2 µM and the greatest degradation seen (Dmax) fell in the range of 30 to 50%.
The corresponding values for `CC(=O)N1c2ccc(-c3ccc(C(=O)NCCOCCOCCOCCOCCOCCNC(=O)C4CC(C(C)C)CN(C(=O)/C(C#N)=C/c5ccn(C)n5)C4)cc3)cc2[C@H](Nc2ccc(Cl)cc2)C[C@@H]1C` (stereo partly drawn) [Example 13m] are 0.025 to 0.2 µM and 50 to 70%.
The corresponding values for `CC(=O)N1c2ccc(-c3ccc(C(=O)NCCOCCOCCOCCOCCOCCNC(=O)C4CC(C(C)C)CN(C(=O)/C(C#N)=C/c5ccc(F)cc5)C4)cc3)cc2[C@H](Nc2ccc(Cl)cc2)C[C@@H]1C` (stereo partly drawn) [Example 13n] are > 0.2 µM and 50 to 70%.
Consider `CC(=O)N1c2ccc(-c3ccc(C(=O)NCCOCCOCCOCCOCCOCCNC(=O)C4CC(C5CCCCC5)CN(C(=O)/C(C#N)=C/c5nccs5)C4)cc3)cc2[C@H](Nc2ccc(Cl)cc2)C[C@@H]1C` (stereo partly drawn) [Example 13p], for which the DC50 is < 0.025 µM and the Dmax is ≥ 70%.
Consider `CC(=O)N1c2ccc(-c3ccc(C(=O)NCCOCCOCCOCCOCCOCCNC(=O)C4CC(C5CCCCC5)CN(C(=O)/C(C#N)=C/C(C)(C)C)C4)cc3)cc2[C@H](Nc2ccc(Cl)cc2)C[C@@H]1C` (stereo partly drawn) [Example 13q], for which the half-maximal degradation concentration (DC50) is 0.025 to 0.2 µM and the maximal degradation (Dmax) was in the range of 50 to 70%.
The corresponding values for `CC(=O)N1c2ccc(-c3ccc(C(=O)NCCOCCOCCOCCOCCOCCNC(=O)C4CC(C5CCCCC5)CN(C(=O)/C(C#N)=C/c5ccn(C)n5)C4)cc3)cc2[C@H](Nc2ccc(Cl)cc2)C[C@@H]1C` (stereo partly drawn) [Example 13r] are 0.025 to 0.2 µM and ≥ 70%.
Take `CC(=O)N1c2ccc(-c3ccc(C(=O)NCCOCCOCCOCCOCCOCCNC(=O)C4CC(C5CCCCC5)CN(C(=O)/C(C#N)=C/c5ccc(F)cc5)C4)cc3)cc2[C@H](Nc2ccc(Cl)cc2)C[C@@H]1C` (stereo partly drawn) [Example 13s]: the DC50 was in the range of 0.025 to 0.2 µM and the Dmax is ≥ 70%.
The corresponding values for `CC(=O)N1c2ccc(-c3ccc(C(=O)NCCOCCOCCOCCOCCOCCNC(=O)C4CC(C5CCCCC5)CN(C(=O)/C(C#N)=C/C(C)(C)CN5CCOCC5)C4)cc3)cc2[C@H](Nc2ccc(Cl)cc2)C[C@@H]1C` (stereo partly drawn) [Example 13t] are 0.025 to 0.2 µM and ≥ 70%.
For `CC(=O)N1c2ccc(-c3ccc(C(=O)NCCOCCOCCOCCOCCOCCNC(=O)C4CC(C5CC5)CN(C(=O)/C(C#N)=C/c5nccs5)C4)cc3)cc2[C@H](Nc2ccc(Cl)cc2)C[C@@H]1C` (stereo partly drawn) [Example 13u] the same measures were < 0.025 µM and ≥ 70%.
For `CC(=O)N1c2ccc(-c3ccc(C(=O)NCCOCCOCCOCCOCCOCCNC(=O)C4CC(C5CC5)CN(C(=O)/C(C#N)=C/C(C)(C)C)C4)cc3)cc2[C@H](Nc2ccc(Cl)cc2)C[C@@H]1C` (stereo partly drawn) [Example 13v] the same measures were 0.025 to 0.2 µM and ≥ 70%.
Turning to `CC(=O)N1c2ccc(-c3ccc(C(=O)NCCOCCOCCOCCOCCOCCNC(=O)C4CC(C5CC5)CN(C(=O)/C(C#N)=C/c5ccc(F)cc5)C4)cc3)cc2[C@H](Nc2ccc(Cl)cc2)C[C@@H]1C` (stereo partly drawn) [Example 13x], the DC50 lay within 0.025 to 0.2 µM and the Dmax is ≥ 70%.
